The results in this text go back to patent publication US11472811B2, “Pyrazolotriazolopyrimidine derivatives as A2A receptor antagonist” (BEIGENE, LTD., priority 2018, dated 2022).

Sequence of human A2A receptor (A2AR) (P29274 whole entry): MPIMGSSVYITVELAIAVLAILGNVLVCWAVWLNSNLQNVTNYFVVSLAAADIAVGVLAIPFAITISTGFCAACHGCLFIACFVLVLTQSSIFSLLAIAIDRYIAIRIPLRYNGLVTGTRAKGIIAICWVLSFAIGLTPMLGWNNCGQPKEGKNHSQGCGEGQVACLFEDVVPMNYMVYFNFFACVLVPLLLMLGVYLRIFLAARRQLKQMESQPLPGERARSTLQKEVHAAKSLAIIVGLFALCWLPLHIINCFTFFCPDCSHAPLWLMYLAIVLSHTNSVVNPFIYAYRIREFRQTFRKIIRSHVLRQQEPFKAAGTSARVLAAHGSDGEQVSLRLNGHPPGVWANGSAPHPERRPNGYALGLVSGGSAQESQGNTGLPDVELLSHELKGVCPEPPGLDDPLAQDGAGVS

In this assay the target is human A2A receptor (A2AR) (Homo sapiens (Human), UniProt P29274). Nature of the assay: Luciferase reporter assay (HEK293-A2AR-luc2p/CRE/Hygro cells). As to conditions: 3 nM CGS21680, 5 h incubation. It is filed as cell-based. As for the experimental part:
HEK293 cells were maintained in Dulbecco's modified Eagle's medium (DMEM, Gibco) supplemented with 10% fetal bovine serum (FBS, Thermo Scientific), 100 units/mL penicillin (Gibco), and 0.1 mg/mL streptomycin (Gibco) in a humidified 37° C. environment with 5% CO2. Plasmid encoding wild-type human A2A receptor (A2AR) (in pcDNA3.1) was synthesized by Genscript (Nanjing, China). Transfection of the plasmids was performed in 6-well plates with 4×10^5 cells using Lipofectamin 2000 (ThermoFisher Scientific) according to the instruction of the manufacturer. Cell clones that stably express A2AR were established and maintained in the same complete medium as the HEK293 cells in addition of G-418 (Gibico). Expression level of A2AR in each single cell clone was determined using immunoblotting and FACS method. HEK293-A2AR stable cells were then transfected with pGL4.29[luc2P/CRE/Hygro] (Promega) luciferase reporter plasmid for establishing the HEK293-A2AR-luc2p/CRE/Hygro stable cell line.
HEK293-A2AR-luc2p/CRE/Hygro cells were seeded at a density of 5,000 cells/well in DMEM with 1% FBS and 1 U/mL adenosine deaminase (ADA) (Sigma). After 18 h, the cells were treated with 3 nM CGS21680 plus a series dilution of A2AR antagonist, the compounds disclosed herein at the concentration of 0.1˜10000 nM, prepared in DMEM with 1% FBS. After 5 h incubation, the luciferase activity in cells were measured using the Bright-Glo Luciferase Assay System (Promega) according to manufacturer's instructions. The luminescence signal was measured using a PHERAstar FS plate reader (BMG Labtech). […] Maximal luminescence intensity was determined in the presence of 3 nM CGS21680 and was set as 100%. The IC50 value was calculated from a dose dependent inhibition curve across the range of compound concentrations.
For the molecule `C[C@](C(=O)NCCN1CCC(O)CC1)(c1ccccc1)n1ncc2c1nc(N)n1nc(-c3ccco3)nc21` [Example 148B, (R)-2-(5-amino-2-(furan-2-yl)-7H-pyrazolo[4,3-e][1,2,4]triazolo[1,5-c]pyrimidin-7-yl)-N-(2-(4-hydroxypiperidin-1-yl)ethyl)-2-phenylpropanamide], the IC50 worked out at 19.3 nM. This counts as double-digit nanomolar. As to `COc1ccc(C(C)(C(=O)NCC2(O)COC2)n2ncc3c2nc(N)n2nc(-c4ccco4)nc32)cc1` (centres unmarked) [Example 86, 2-(5-amino-2-(furan-2-yl)-7H-pyrazolo[4,3-e][1,2,4]triazolo[1,5-c]pyrimidin-7-yl)-N-((3-hydroxyoxetan-3-yl)methyl)-2-(4-methoxyphenyl)propanamide], the 50% inhibitory concentration (IC50) was determined as 85.9 nM.

In the case of `Nc1nc2c(cnn2C(C(=O)N[C@H]2CC[C@@H](O)CC2)c2ccccc2)c2nc(-c3ccco3)nn12` (mixture of isomers) [Example 92, 2-(5-amino-2-(furan-2-yl)-7H-pyrazolo[4,3-e][1,2,4]triazolo[1,5-c]pyrimidin-7-yl)-(cis)-N-(4-hydroxycyclohexyl)-2-phenylacetamide], 12.4 nM corresponded to half-maximal inhibition (IC50). Against the preceding molecule, the IC50 is about 6.9-fold lower.

`CC(C(=O)NCC1(O)CC1)(c1ccccc1)n1ncc2c1nc(N)n1nc(-c3ccco3)nc21` (centres unmarked) [Example 88, 2-(5-amino-2-(furan-2-yl)-7H-pyrazolo[4,3-e][1,2,4]triazolo[1,5-c]pyrimidin-7-yl)-N-((1-hydroxycyclopropyl)methyl)-2-phenylpropanamide]: the IC50 was determined as 437 nM. `CC(C(=O)N[C@H]1CCCC[C@H]1O)(c1ccccc1)n1ncc2c1nc(N)n1nc(-c3ccco3)nc21` (stereo partly drawn) [Example 58A, 2-(5-amino-2-(furan-2-yl)-7H-pyrazolo[4,3-e][1,2,4]triazolo[1,5-c]pyrimidin-7-yl)-N-((1S,2R)-2-hydroxycyclohexyl)-2-phenylpropanamide] had an IC50 of 14.2 nM. As for `CC(C)(C(=O)NCC1(O)COC1)n1ncc2c1nc(N)n1nc(-c3ccco3)nc21` [Example 138, 2-(5-amino-2-(furan-2-yl)-7H-pyrazolo[4,3-e][1,2,4]triazolo[1,5-c]pyrimidin-7-yl)-N-((3-hydroxyoxetan-3-yl)methyl)-2-methylpropanamide], the figure is 33.2 nM; as for `CC(C(=O)NCC1(O)COC1)(c1ccccc1)n1ncc2c1nc(N)n1nc(-c3nccs3)nc21` (centres unmarked) [Example 133, 2-(5-amino-2-(thiazol-2-yl)-7H-pyrazolo[4,3-e][1,2,4]triazolo[1,5-c]pyrimidin-7-yl)-N-((3-hydroxyoxetan-3-yl)methyl)-2-phenylpropanamide], 15 nM. `CC(C(=O)Nc1cccnc1)(c1ccccc1)n1ncc2c1nc(N)n1nc(-c3ccco3)nc21` (centres unmarked) [Example 64, 2-(5-amino-2-(furan-2-yl)-7H-pyrazolo[4,3-e][1,2,4]triazolo[1,5-c]pyrimidin-7-yl)-2-phenyl-N-(pyridin-3-yl)propanamide] yielded an IC50 of 35.1 nM.

The molecule `CC(C(=O)NCCC1CCOCC1)(c1ccccc1)n1ncc2c1nc(N)n1nc(-c3ccco3)nc21` (centres unmarked) [Example 73, 2-(5-amino-2-(furan-2-yl)-7H-pyrazolo[4,3-e][1,2,4]triazolo[1,5-c]pyrimidin-7-yl)-2-phenyl-N-(2-(tetrahydro-2H-pyran-4-yl)ethyl)propanamide] showed an IC50 of 9.3 nM.

Molecule `CC(C(=O)NCc1cc(F)ccn1)(c1ccccc1)n1ncc2c1nc(N)n1nc(-c3ccco3)nc21` (centres unmarked) [Example 118, 2-(5-amino-2-(furan-2-yl)-7H-pyrazolo[4,3-e][1,2,4]triazolo[1,5-c]pyrimidin-7-yl)-N-((4-fluoropyridin-2-yl)methyl)-2-phenylpropanamide] registered an IC50 of 7.2 nM. The IC50 values of the last two molecules are within 1.5-fold of each other.

Take `COCCNC(=O)C(C)(c1ccccc1)n1ncc2c1nc(N)n1nc(-c3ccco3)nc21` (centres unmarked) [Example 39, 2-(5-amino-2-(furan-2-yl)-7H-pyrazolo[4,3-e][1,2,4]triazolo[1,5-c]pyrimidin-7-yl)-N-(2-methoxyethyl)-2-phenylpropanamide]: the concentration for half-maximal inhibition (IC50) came out at 7.6 nM.

For `CCCC(C(=O)NCc1ccccc1OC)n1ncc2c1nc(N)n1nc(-c3ccco3)nc21` (centres unmarked) [Example 21, 2-(5-amino-2-(furan-2-yl)-7H-pyrazolo[4,3-e][1,2,4]triazolo[1,5-c]pyrimidin-7-yl)-N-(2-methoxybenzyl)pentanamide], the IC50 came to 15.3 nM. As to `C[C@](C(=O)NCc1cc(F)ccn1)(c1ccccc1)n1ncc2c1nc(N)n1nc(-c3ccco3)nc21` [Example 118B, (R)-2-(5-amino-2-(furan-2-yl)-7H-pyrazolo[4,3-e][1,2,4]triazolo[1,5-c]pyrimidin-7-yl)-N-((4-fluoropyridin-2-yl)methyl)-2-phenylpropanamide], the IC50 worked out at 6 nM. The molecule `C[C@](C(=O)N[C@H]1COC[C@H]1O)(c1ccccc1)n1ncc2c1nc(N)n1nc(-c3ccco3)nc21` [Example 107B, (R)-2-(5-amino-2-(furan-2-yl)-7H-pyrazolo[4,3-e][1,2,4]triazolo[1,5-c]pyrimidin-7-yl)-N-((3S,4S)-4-hydroxytetrahydrofuran-3-yl)-2-phenylpropanamide] registered an IC50 of 32.2 nM. Turning to `CC(C(=O)NCc1ccc2c(c1)OCO2)(c1ccccc1)n1ncc2c1nc(N)n1nc(-c3ccco3)nc21` (centres unmarked) [Example 42, 2-(5-amino-2-(furan-2-yl)-7H-pyrazolo[4,3-e][1,2,4]triazolo[1,5-c]pyrimidin-7-yl)-N-(benzo[d][1,3]dioxol-5-ylmethyl)-2-phenylpropanamide], the IC50 was 3.9 nM. Then `CC(C(=O)NC1CCCCC1)(c1ccccc1)n1ncc2c1nc(N)n1nc(-c3ccco3)nc21` (centres unmarked) [Example 43, 2-(5-amino-2-(furan-2-yl)-7H-pyrazolo[4,3-e][1,2,4]triazolo[1,5-c]pyrimidin-7-yl)-N-cyclohexyl-2-phenylpropanamide], with 4.1 nM. As for `Nc1nc2c(cnn2C(C(=O)NCc2ccc(F)cc2)c2ccccc2)c2nc(-c3ccco3)nn12` (centres unmarked) [Example 26, 2-(5-amino-2-(furan-2-yl)-7H-pyrazolo[4,3-e][1,2,4]triazolo[1,5-c]pyrimidin-7-yl)-N-(4-fluorobenzyl)-2-phenylacetamide], the figure is 2.6 nM; as for `COCCOc1ccc(N2CCN(CCNC(=O)C(C)(c3ccccc3)n3ncc4c3nc(N)n3nc(-c5ccco5)nc43)CC2)cc1` (centres unmarked) [Example 44, 2-(5-amino-2-(furan-2-yl)-7H-pyrazolo[4,3-e][1,2,4]triazolo[1,5-c]pyrimidin-7-yl)-N-(2-(4-(4-(2-methoxyethoxy)phenyl)piperazin-1-yl)ethyl)-2-phenylpropanamide], 22.5 nM. `Cc1cccc(C(C)(C(=O)NCC2(O)COC2)n2ncc3c2nc(N)n2nc(-c4ccco4)nc32)c1` (centres unmarked) [Example 85, 2-(5-amino-2-(furan-2-yl)-7H-pyrazolo[4,3-e][1,2,4]triazolo[1,5-c]pyrimidin-7-yl)-N-((3-hydroxyoxetan-3-yl)methyl)-2-(m-tolyl)propanamide] showed an IC50 of 7.3 nM. On to `CC(C(=O)N[C@@H]1CCC[C@@H]1O)(c1ccccc1)n1ncc2c1nc(N)n1nc(-c3ccco3)nc21` (stereo partly drawn) [Example 48, 2-(5-amino-2-(furan-2-yl)-7H-pyrazolo[4,3-e][1,2,4]triazolo[1,5-c]pyrimidin-7-yl)-N-((1R,2S)-2-hydroxycyclopentyl)-2-phenylpropanamide], for which the IC50 is 2.9 nM.
